One assay relates to Pyricularia oryzae. The experiment in a line: microbe, parasite or virus in culture. It counts as cell-based. Particulars: for Observed efficacy: single active.
In assay [1] the test system is Colletotrichum orbiculare. Nature of the assay: Activity against Colletotrichum orbiculare in the microtiterplate test (COLLLA). It counts as cell-based. Particulars: single active.
A further assay concerns Sclerotinia sclerotiorum. Nature of the assay: Activity against Sclerotinia sclerotiorum in the microtiterplate test (SCLESC). It counts as cell-based. Particulars: single active.
A further assay deals with Botrytis cinerea. Nature of the assay: Activity against grey mold Botrytis cinerea in the microtiterplate test (BOTRCI). Particulars: single active. It counts as cell-based.
In the next assay the test system is Staphylococcus aureus. Particulars: clinically relevant fungi and gram-positive bacteria such a Staphylococcus aureus; cited from earlier work.
[2] abbreviates: Pyricularia oryzae, 168 h, read-out: Observed efficacy.

As for `Cc1ccc(-c2c(Cl)nc(C#N)n2S(=O)(=O)N(C)C)cc1` [Cyazofamid, cyazofamid], in the assay on Pyricularia oryzae (setting [2]), the inhibition of growth at 0.25 ppm stood at 6% and the inhibition of growth at 1 ppm was determined as 16%. metiram: the Observed efficacy in the assay with Pyricularia oryzae (16 ppm) turned out to be 17. fosetyl-aluminium: the Observed efficacy in the assay with Pyricularia oryzae (4 ppm) was determined as 4.

In the case of mancozeb, the Observed efficacy with Pyricularia oryzae (0.25 ppm) was determined as 5. Regarding `COc1cc(C)c(C(=O)c2c(OC)ccc(Br)c2C)c(OC)c1OC` [Metrafenon, metrafenone], the inhibition of growth at 0.25 ppm with Pyricularia oryzae (setting [2]) amounted to 3%.

`Cc1cccc(-n2nnn(C)c2=O)c1COc1ccn(-c2ccc(Cl)cc2)n1` [Methyltetraprol, metyltetraprole]: the Observed efficacy in the assay with Pyricularia oryzae (0.016 ppm) was 16; in assay [1] (0.063 ppm) it was 19. As for `C#CCOc1ccc(CCNC(=O)C(OCC#C)c2ccc(Cl)cc2)cc1OC` (stereo not shown) [Mandipropamid, mandipropamid], the Observed efficacy in the assay with Sclerotinia sclerotiorum (63 ppm) came to 29; in the assay on Botrytis cinerea (63 ppm) it was 16; in the assay with Pyricularia oryzae (16 ppm) it was 7. For the compound `Cc1c(Br)c2ccc(F)cc2n1S(=O)(=O)c1ncn(S(=O)(=O)N(C)C)n1` [Amisulbrom, amisulbrom], the Observed efficacy in the assay with Pyricularia oryzae (1 ppm) worked out at 3; in the assay with Pyricularia oryzae (4 ppm), 11.

As for `CCCN(CC)CC1COC2(CCC(C(C)(C)C)CC2)O1` (stereo not shown) [Spiroxamin, spiroxamine], in the assay with Pyricularia oryzae (setting [2]), the inhibition of growth at 4 ppm stood at 3% and the inhibition of growth at 16 ppm turned out to be 17%. This compound also had an Observed efficacy in assay [1] (16 ppm) of 8.

In the assay with Pyricularia oryzae (0.016 ppm), `Cn1cc(C(=O)Nc2ccccc2-c2cc(F)c(F)c(F)c2)c(C(F)F)n1` [Fluxapyroxad, fluxapyroxad] displayed an Observed efficacy of 3. Take `COC(=O)CC(NC(=O)[C@@H](NC(=O)OC(C)C)C(C)C)c1ccc(Cl)cc1` (stereo partly shown) [Valifenalat, valifenalate]: the Observed efficacy in the assay on Pyricularia oryzae (4 ppm) worked out at 1. As for `CON=C(C(=O)OC)c1ccccc1CON=C(C)c1cccc(C(F)(F)F)c1` [Trifloxystrobin, trifloxystrobin], the Observed efficacy with Sclerotinia sclerotiorum (0.063 ppm) is listed as 41; in the assay on Botrytis cinerea (0.063 ppm), 0. In the assay on Botrytis cinerea (16 ppm), `Cc1cc(C(F)(F)F)nn1CC(=O)N1CCC(c2nc(C3=NOC(c4c(F)cccc4F)C3)cs2)CC1` (stereo not shown) [Oxathiapiprolin, oxathiapiprolin] came in with an Observed efficacy of 11.

On to `CCC(C)(NC(=O)c1cc(Cl)c(C)c(Cl)c1)C(=O)CCl` (stereo not shown) [Zoxamid, zoxamide], for which the Observed efficacy in the assay on Sclerotinia sclerotiorum (1 ppm) turned out to be 0; in the assay on Botrytis cinerea (1 ppm) it was 11; in assay [1] (1 ppm) it was 0. Also, the inhibition of growth at 4 ppm with Pyricularia oryzae (setting [2]) was determined as 39%. For `COc1cc(C)c(C(=O)c2c(OC)ncc(Cl)c2C)c(OC)c1OC` [Pyriofenon, pyriofenone], the Observed efficacy in the assay with Botrytis cinerea (16 ppm) was 12; with Pyricularia oryzae (4 ppm) it was 6; with Pyricularia oryzae (16 ppm) it was 18; in assay [1] (16 ppm), 20. Turning to `CCNC(=O)NC(=O)/C(C#N)=N/OC` [Cymoxanil, cymoxanil], in the assay with Pyricularia oryzae (setting [2]), the inhibition of growth at 16 ppm came out at 3% and the inhibition of growth at 63 ppm came to 11%. On to `O=C(Nc1ccccc1-c1ccc(Cl)cc1)c1cccnc1Cl` [Boscalid, boscalid], for which, in the assay with Pyricularia oryzae (setting [2]), the inhibition of growth at 1 ppm worked out at 5%. As to `O=C(NCc1ncc(C(F)(F)F)cc1Cl)c1c(Cl)cccc1Cl` [Fluopicolid, fluopicolide], in the assay on Pyricularia oryzae (1 ppm), the Observed efficacy came to 2. Regarding `CO/N=C(/C1=NOCCO1)c1ccccc1Oc1ncnc(Oc2ccccc2Cl)c1F` [Fluoxastrobin, fluoxastrobin], the inhibition of growth at 0.016 ppm in the assay on Pyricularia oryzae (setting [2]) was 8%.

Consider `CC(C)[C@H](NC(=O)O)C(=O)N[C@H](C)c1nc2ccc(F)cc2s1` [Benthiavalicarb, benthiavalicarb], for which the Observed efficacy in the assay with Pyricularia oryzae (4 ppm) is 0; with Pyricularia oryzae (16 ppm) it was 8. Turning to `N#Cc1sc2c(=O)c3ccccc3c(=O)c=2sc1C#N` [Dithianon, dithianon], the values for the Observed efficacy (in the assay on Sclerotinia sclerotiorum (1 ppm); in assay [1] (0.063 ppm)) were 57 and 0, respectively. fusaricidin A: in the assay with Staphylococcus aureus, the MIC value range was 0.78 to 3.12 µg/mL. For the compound `CCCCCCCCc1c(CC)nc2ncnn2c1N` [Ametoctradin, ametoctradin], the Observed efficacy in the assay on Pyricularia oryzae (4 ppm) was 12.

`O=[N+]([O-])c1cc(C(F)(F)F)c(Cl)c([N+](=O)[O-])c1Nc1ncc(C(F)(F)F)cc1Cl` [Fluazinam, fluazinam]: in the assay with Pyricularia oryzae (setting [2]), the inhibition of growth at 0.063 ppm came out at 8%. In the case of `Cc1ccc(C(C)NC(=O)[C@@H](NC(=O)OC(C)C)C(C)C)cc1` (stereo partly shown) [Iprovalicarb, iprovalicarb], the Observed efficacy stood at 8 in the assay with Pyricularia oryzae (1 ppm) and 17 in the assay with Pyricularia oryzae (4 ppm).
